The values below come from patent publication US7968548B2, “Melanocortin receptor-specific piperazine compounds with diamine groups” (Palatin Technologies, Inc., priority 2005, dated 2011).

The target of assay [1] is T1, MC3-R (Homo sapiens, UniProt P41968).
T1 construct: expressed in transfected cells; host or cells: HEK-293
In words: Competitive inhibition binding assay using [I125]-NDP-α-MSH, HEK-293 membranes, recombinant hMC3-R. The settings on record: for inhibition at 1 µM: 1 μM compound. The method, then: (§1) A competitive inhibition binding assay was performed using membrane homogenates prepared from HEK-293 cells that express recombinant hMC4-R, hMC3-R, or hMC5-R, and from B-16 mouse melanoma cells (containing endogenous MC1-R). In some instances, HEK-293 cells that express recombinant hMC1-R were employed. In the examples that follow, all MC3-R, MC4-R and MC5-R values are for human recombinant receptors. MC1-R values are for B-16 mouse melanoma cells, unless the heading is “hMC1-R”, in which case the value is for human recombinant MC1-R. Assays were performed in 96 well GF/B Millipore multiscreen filtration plates (MAFB NOB10) pre-coated with 0.5% bovine serum albumin (Fraction V). […] After incubation for 60 minutes at 37° C., the assay mixture was filtered and the membranes washed three times with ice-cold buffer. Filters were dried and counted in a gamma counter for bound radioactivity. […] Maximal specific binding (100%) was defined as the difference in radioactivity (cpm) bound to cell membranes in the absence and presence of 1 μM NDP-α-MSH. […] Each assay was conducted in triplicate and the actual mean values are described, with results less than 0% reported as 0%. Ki values for test compounds were determined using Graph-Pad Prism® curve-fitting software.

Assay [2] addresses T2, MC5-R (Homo sapiens, UniProt P33032).
T2 construct: expressed in transfected cells; host or cells: HEK-293
In words: Competitive inhibition binding assay using [I125]-NDP-α-MSH, HEK-293 membranes, recombinant hMC5-R. As to conditions: for inhibition at 1 µM: 1 μM compound. How it is done: as §1

In assay [3] the target is T3, MC1-R (Mus musculus, UniProt Q01727).
T3 construct: from B-16 mouse melanoma cells (containing endogenous MC1-R); endogenous in cells; host or cells: B-16 mouse melanoma cells (membrane homogenates)
In words: Competitive inhibition binding assay using [I125]-NDP-α-MSH, B-16 mouse melanoma cell membranes. The settings on record: B-16 mouse melanoma cells; for inhibition at 1 µM: 1 μM compound. How it is done: as §1

The target in assay [4] is T4, MC4-R (Homo sapiens, UniProt P32245). In words: Assay for agonist activity: cAMP accumulation in HEK-293 cells that express MC4-R. The format is cell-based. Details: expressed in transfected cells; host or cells: HEK-293. As to conditions: HEK293; cell line that expresses MC4-R; relative to NDP-α-MSH; read-out: maximum effect observed, % of the maximum achieved with NDP-α-MSH (cAMP). The method, then:
Assay for agonist activity. Accumulation of intracellular cAMP was examined as a measure of the ability of the test compounds to elicit a functional response in HEK-293 cells that express MC4-R. Confluent HEK-293 cells that express recombinant hMC4-R were detached from culture plates by incubation in enzyme-free cell dissociation buffer. Dispersed cells were suspended in Earle's Balanced Salt Solution containing 10 mM HEPES (pH 7.5), 1 mM MgCl2, 1 mM glutamine, 0.5% albumin and 0.3 mM 3-isobutyl-1-methyl-xanthine (IBMX), a phosphodiesterase inhibitor. The cells were plated in 96-well plates at a density of 0.5×10^5 cells per well and pre-incubated for 30 minutes. Cells were exposed for 1 hour at 37° C. to test compounds dissolved in DMSO (final DMSO concentration of 1%) at a concentration range of 0.05-5000 nM in a total assay volume of 200 μL. NDP-α-MSH was used as the reference agonist. At the end of the incubation period, cells were disrupted by the addition of 50 μL of lysis buffer (cAMP EIA kit, Amersham) followed by vigorous pipetting. Levels of cAMP in the lysates were determined using a cAMP EIA kit (Amersham). Data analysis was performed by nonlinear regression analysis with Graph-Pad Prism® software. The maximum efficacies of the test compounds were compared to that achieved by the reference melanocortin agonist NDP-αMSH.

The target in assay [5] is T4, MC4-R. In words: Competitive inhibition binding assay using [I125]-NDP-α-MSH, HEK-293 membranes, recombinant hMC4-R. Details: expressed in transfected cells; host or cells: HEK-293. As to conditions: for inhibition at 1 µM: 1 μM compound. How it is done:
as §1

Assay [6] can be described thus: Mouse model IP feeding studies in fasted animals (food intake). The format is in vivo. As to conditions: 3 mg/kg, 20 hours. How it is done:
(§2) Food intake and body weight after IN and IP dosing. Changes in food intake and body weight were evaluated for selected compounds. Male C57BL/6 mice were obtained from Jackson labs (Bar Harbor, Me.). Animals were individually housed in conventional plexiglass hanging cages and maintained on a controlled 12 hour on/off light cycle. Water and pelleted (Harlan Teklad 2018 18% Protein Rodent Diet) food was provided ad libitum. The mice were dosed IP (by intraperitoneal injection) after a 24 hour fast or IN (by intranasal administration) with vehicle or selected compounds (0.1-3 mg/kg, and in some cases up to 10 mg/kg). All animals were dosed once a day (or up to four consecutive days) at the start of the “lights off” period. The changes in food intake for the 4 hour and 20 hour period after dosing relative to control animals administered vehicle were determined. Body weights were determine 4 hours prior to dosing and 20 hours after dosing, and the change in body weight relative to control animals administered vehicle were determined.

Assay [7] is described as follows: Mouse model IN feeding studies (body weight). The format is in vivo. As to conditions: 20 hours. How it is done:
as §2

The target in assay [8] is T4, MC4-R. In words: Competitive binding assay using [I125]-AgRP (83-132). As to conditions: hMC4-R membranes. Details: expressed in transfected cells. How it is done: Competitive binding assay using [I^125]—AgRP (83-132). Competitive binding studies using [I^125]—AgRP (83-132) were carried out using membrane homogenates isolated from cells that express hMC4-R. The assays were performed in 96-well GF/B Millipore multiscreen filtration plates (MAFB NOB10) pre-coated with 0.5% bovine serum albumin (Fraction V). The assay mixture contained 25 mM HEPES buffer (pH 7.5) with 100 mM NaCl, 2 mM CaCl2, 2 mM MgCl2, 0.3 mM 1,10-phenanthroline, 0.5% bovine serum albumin, membrane homogenates, radioligand [I^125]—AgRP (83-132) (Perkin Elmer) and increasing concentrations of compounds in a total volume of 200 μL. Binding was measured at radioligand concentrations of 0.2 nM. After incubating for 1 hour at 37° C., the reaction mixture was filtered and washed with assay buffer containing 500 mM NaCl. The dried discs were punched out from the plate and counted on a gamma counter. […] Ki values for test compounds were determined using Graph-Pad Prism® curve-fitting software.

Assay [9] deals with T5, hMC1-R (Homo sapiens, UniProt Q01726).
T5 construct: expressed in transfected cells; host or cells: HEK-293
The assay can be described thus: Competitive inhibition binding assay using [I125]-NDP-α-MSH, HEK-293 membranes, recombinant hMC1-R. As to conditions: human recombinant MC1-R. How it is done:
as §1

T4 sequence (P32245 whole entry): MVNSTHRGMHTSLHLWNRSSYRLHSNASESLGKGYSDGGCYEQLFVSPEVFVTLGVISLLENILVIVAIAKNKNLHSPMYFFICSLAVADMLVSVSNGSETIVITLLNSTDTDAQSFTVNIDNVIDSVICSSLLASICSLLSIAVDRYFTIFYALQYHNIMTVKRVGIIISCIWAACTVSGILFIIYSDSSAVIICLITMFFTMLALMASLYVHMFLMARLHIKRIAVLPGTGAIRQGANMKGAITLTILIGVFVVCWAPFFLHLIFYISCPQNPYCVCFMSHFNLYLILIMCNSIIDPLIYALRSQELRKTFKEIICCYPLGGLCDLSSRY
T3 sequence (Q01727 whole entry): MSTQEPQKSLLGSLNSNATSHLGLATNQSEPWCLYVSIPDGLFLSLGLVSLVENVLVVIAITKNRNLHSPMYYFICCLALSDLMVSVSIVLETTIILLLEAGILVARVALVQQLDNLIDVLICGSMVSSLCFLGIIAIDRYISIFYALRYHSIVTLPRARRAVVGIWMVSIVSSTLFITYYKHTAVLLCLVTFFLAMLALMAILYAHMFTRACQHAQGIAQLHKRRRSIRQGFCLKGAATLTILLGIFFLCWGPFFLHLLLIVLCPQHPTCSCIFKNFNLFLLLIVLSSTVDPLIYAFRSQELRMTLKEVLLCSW
T1 sequence (P41968 whole entry): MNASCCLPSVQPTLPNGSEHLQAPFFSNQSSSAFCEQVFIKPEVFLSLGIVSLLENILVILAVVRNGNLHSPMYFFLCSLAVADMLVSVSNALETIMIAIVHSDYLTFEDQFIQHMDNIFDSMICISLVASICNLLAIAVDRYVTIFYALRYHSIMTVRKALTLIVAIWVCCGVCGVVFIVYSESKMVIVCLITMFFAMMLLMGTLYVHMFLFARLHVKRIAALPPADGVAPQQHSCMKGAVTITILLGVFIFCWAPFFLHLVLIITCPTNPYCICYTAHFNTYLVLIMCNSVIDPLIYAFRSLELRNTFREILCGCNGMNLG
T2 sequence (P33032 whole entry): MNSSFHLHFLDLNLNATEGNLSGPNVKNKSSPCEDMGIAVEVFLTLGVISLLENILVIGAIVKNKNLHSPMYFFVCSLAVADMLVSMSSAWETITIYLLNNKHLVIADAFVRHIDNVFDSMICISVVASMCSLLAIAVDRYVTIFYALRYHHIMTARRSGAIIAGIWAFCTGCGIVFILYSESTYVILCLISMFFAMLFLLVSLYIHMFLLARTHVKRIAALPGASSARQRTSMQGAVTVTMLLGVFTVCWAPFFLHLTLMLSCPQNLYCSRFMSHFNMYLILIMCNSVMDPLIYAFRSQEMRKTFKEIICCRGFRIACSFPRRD
T5 sequence (Q01726 whole entry): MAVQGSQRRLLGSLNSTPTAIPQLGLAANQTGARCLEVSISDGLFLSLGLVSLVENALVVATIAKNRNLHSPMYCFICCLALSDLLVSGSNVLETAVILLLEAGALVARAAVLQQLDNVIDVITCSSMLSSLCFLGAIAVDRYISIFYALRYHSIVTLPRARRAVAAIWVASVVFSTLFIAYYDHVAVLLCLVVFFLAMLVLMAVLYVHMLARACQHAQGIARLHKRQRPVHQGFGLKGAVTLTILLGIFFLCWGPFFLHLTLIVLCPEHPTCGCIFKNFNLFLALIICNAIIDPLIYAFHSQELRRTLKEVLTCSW

Turning to `CC(C)C[C@@H]1CN(C(=O)[C@H](N)Cc2ccc(Cl)cc2Cl)[C@@H](CCCCNCCN)CN1C(=O)Cc1ccc2ccccc2c1` [Example 1, (R)-2-Amino-1-[(2S,5R)-2-[4-(2-amino-ethylamino)-butyl]-5-isobutyl-4-(2-naphthalen-2-yl-acetyl)-piperazin-1-yl]-3-(2,4-dichloro-phenyl)-propan-1-one], the Ki (commonly the equilibrium dissociation constant of an inhibitor or competing ligand from its target) in [1] is 250 nM; in [2] it was 301 nM; in assay [3], 102 nM; in [5], 18 nM. The inhibition (usually the percentage by which the read-out fell short of the control) at 1 µM in [1] worked out at 71%; in [2], 68%; in assay [3], 55%; in assay [5] it was 98%. The Emax in assay [4] came out at 61%.
As to `CC(C)C[C@@H]1CN(C[C@H](N)Cc2ccc(Cl)cc2Cl)[C@@H](CCCCNCCN)CN1C(=O)Cc1ccc2ccccc2c1` [Example 2, 1-{(2R,5S)-4-[(R)-2-Amino-3-(2,4-dichloro-phenyl)-propyl]-5-[4-(2-amino-ethylamino)-butyl]-2-isobutyl-piperazin-1-yl}-2-naphthalen-2-yl-ethanone], the Ki in [1] came to 190 nM; in assay [2] it was 143 nM; in [3] it was 558 nM; in assay [5] it was 23 nM; in assay [8] it was 72 nM. Further, the Emax in assay [4] is 16%. In addition, in [6], the “average decrease in food intake compared to control animals” value was 28%. The “average decrease in body weight compared to control animals” value was 2.5% in [7] (0.1 mg/kg), 3% in [7] (0.3 mg/kg) and 4.7% in assay [7] (1 mg/kg).
For `Cc1ccc(C[C@H](CN2C[C@@H](C)N(C(=O)Cc3ccc4ccccc4c3)C[C@@H]2CCCN2CCN(C)CC2)N(C)C)c(C)c1` [Example 10, 1-{(2R,5S)-4-[(R)-2-Dimethylamino-3-(2,4-dimethyl-phenyl)-propyl]-2-methyl-5-[3-(4-methyl-piperazin-1-yl)-propyl]-piperazin-1-yl}-2-naphthalen-2-I-ethanone], the inhibition at 1 µM in [1] stood at 15%; in assay [2], 54%; in assay [3] it was 28%; in assay [5], 47%.
As to `CC(C)C[C@@H]1CN(C[C@H](N)Cc2ccc(Cl)cc2Cl)[C@@H](CCCNCCN)CN1C(=O)Cc1ccc2ccccc2c1` [Example 18, 1-{(2R,5S)-4-[(R)-2-Amino-3-(2,4-dichloro-phenyl)-propyl]-5-[3-(2-amino-ethylamino)-propyl]-2-isobutyl-piperazin-1-yl}-2-naphthalen-2-yl-ethanone], the Ki in assay [1] worked out at 297 nM; in assay [2], 188 nM; in assay [9] it was 359 nM; in assay [5], 106 nM. For the same compound, the “average decrease in food intake compared to control animals” value in [6] was 30%. In addition, the results for the “average decrease in body weight compared to control animals” value in assay [7] (0.1 mg/kg), in [7] (0.3 mg/kg) and in assay [7] (1 mg/kg) were 3%, 3.5% and 6.2%, respectively.
